Laboratory results taken from ChEMBL document CHEMBL3507680, “University of Dundee, Gates Library screen for HepG2 cell viability”.

experiment: Human HepG2 cell viability assay in 384 well format; assay type: toxicity, cell-based; parameters: dose 125 nL, time 70.5 hour; concentration not given beside the values; conditions: HepG2 cells, read-out: Inhibition

Row | SMILES | cytotoxicity at 70.5 h [%]
1 | c1cnc(Nc2ccc(C3CCCCN3Cc3ccncc3)cn2)nc1 (stereo not given) | -6.32
2 | O=C(c1cscn1)N1CCc2[nH]nc(Nc3ccccc3)c2C1 | -6.3
3 | COCCNc1ccc(CC2CCCN(c3ncccn3)C2)nn1 (stereo not given) | -1.21
4 | Cc1nc(NCc2cccnc2)cc(C2COCCN2)n1 (stereo not given) | -5.63
5 | Cc1cncc(C2CCN(Cc3ccncc3)CC2)n1 | -7.83
6 | Cc1ccnc(C2(C)CCCN2S(=O)(=O)c2ccccc2)n1 (stereo not given) | 16.3
7 | Cc1c(C(=O)N2CCC(C(=O)c3nc4ccccc4s3)CC2)cnn1C | -0.714
8 | CN(C(=O)c1ccccn1)c1nnc(C2CCOC2)s1 (stereo not given) | -7.71
9 | COc1cccc([C@@]2(O)CC[C@@H]3CN(C(=O)c4c[nH]nc4C)C[C@@H]32)c1 | -6.08
10 | Cc1nn(C)c(C)c1-c1ccc(=O)n(C(C)C(=O)NC2CC2)n1 (stereo not given) | 17.4
11 | Cc1nn(C)c(C)c1-c1ccc(=O)n(C(C)C(=O)NC2CCCC2)n1 (stereo not given) | -5.55
12 | Cc1nc2cc(-c3nccn3C)nn2c(N2CCCC2)c1C | -0.486
13 | CCc1cc(O)n2nc(C3CCCN3C(=O)c3ccccn3)cc2n1 (stereo not given) | 17
14 | COc1cc(CCC(=O)N2CCC(c3cc4ncccc4[nH]3)CC2)on1 | 22
15 | Cc1cc(N2CCC(O)CC2)nc(C2CCCN2C)n1 (stereo not given) | -5.82
16 | Cn1ccc2cc(CC3COCCN(C(=O)c4cccnc4)C3)ccc21 (stereo not given) | 11.9
17 | O=C(Cn1c(=O)n(Cc2ccco2)c2ncccc21)NC1CC1 | -4.4
18 | CC1CCCCN1c1nc2c(c(=O)[nH]1)CCN(Cc1ccccn1)C2 (stereo not given) | 3.45
19 | COc1cnc(C2(O)CCN(C(=O)c3ccccn3)CC2)c(OC)n1 | -13.1
20 | COc1cnc(C2(O)CCN(C(=O)c3scnc3C)CC2)c(OC)n1 | 6.58
21 | CC(C)c1nccn1-c1cncc(C2CCCN(C3CCCCC3)C2)n1 (stereo not given) | -0.366
22 | CCc1nccn1-c1cccc(C2CCCN(C3CCCCC3)C2)n1 (stereo not given) | -0.595
23 | COCC(=O)N1CCN(c2cc(C)nc(C3CCCN3C(C)=O)c2)CC1 (stereo not given) | -0.659

Row | SMILES | cytotoxicity at 70.5 h [%]
24 | Cc1nccn1-c1cccc(C2CCCN(C3CCCC3)C2)n1 (stereo not given) | -4.43
25 | Cc1cc2cc(C(=O)N3C[C@H](O)[C@]4(CCCO4)C3)ccc2o1 | -2.18
26 | COc1ccccc1CC(=O)N1CC[C@H](O)[C@]2(CCCO2)C1 | -6.73
27 | C[C@]1(O)CN(Cc2ncccc2F)CC[C@@H]1Oc1cccc(F)c1 | -5.53
28 | COc1cc(CN2C[C@H](OC)[C@]3(CCCO3)C2)ccc1F | 19.1
29 | Cc1cccc(CC2COCCN(Cc3nccn3C)C2)n1 (stereo not given) | -2.76
30 | CNC(=O)C1CN(C(=O)COc2ccccc2)Cc2cn(C)nc21 (stereo not given) | -3.29
31 | O=C(c1c[nH]c(=O)[nH]c1=O)N1CCCC(c2cnccn2)C1 (stereo not given) | -2.78
32 | C[C@]1(O)CN(CCC(N)=O)CC[C@@H]1Oc1cccc(F)c1 | -0.798
33 | Cc1cncc(C2CCCN(C(=O)c3cn(C)nc3C)C2)n1 (stereo not given) | -3.29
34 | Cc1csc(C(=O)N2CCCC(c3[nH]ncc3S(C)(=O)=O)C2)c1 (stereo not given) | -0.679
35 | Cc1cncc(C2CCCN(Cc3ccncc3)C2)n1 (stereo not given) | 13.6
36 | CC(=O)N1CCCC(Cc2nccn2C)C1 (stereo not given) | -5.45
37 | O=C(COc1cccc(F)c1)N1C[C@@H](O)[C@H](N2CCOCC2)C1 | -5.2
38 | Cc1cccc(C2CCCN2S(=O)(=O)N(C)C)n1 (stereo not given) | -2.59
39 | Cc1c[nH]nc1C1CCCCN1C(=O)CCn1nccc1C (stereo not given) | 11.5
40 | CO[C@H]1CN(Cc2ccccc2F)C[C@@]12CCCO2 | -5.8
41 | CN1CCC(c2cc(C(F)(F)F)n3ccnc3n2)CC1 | 24.8
42 | Cc1nccn1-c1cncc(C2CCCN2Cc2cccnc2)n1 (stereo not given) | 19.3
43 | c1cnc(N2CCCC(c3cncc(-n4ccnc4)n3)C2)nc1 (stereo not given) | 13.4
44 | COCc1cc(O)nc(C2CCCN(Cc3cccc(Cl)c3Cl)C2)n1 (stereo not given) | -4.6
45 | COc1cc2nc3n(c(=O)c2cc1OC)CCN(C(=O)C(C)(C)C)CC3 | -1.33
46 | OC1CCN(Cc2c(-c3ccco3)[nH]c3ncccc23)CC1 | -5.94

Row | SMILES | cytotoxicity at 70.5 h [%]
47 | COc1ccc(CN2CCC(c3cc(O)nc(C)n3)C2)c(F)c1 (stereo not given) | -1.14
48 | CCc1cc(C(=O)N2CCc3nc4c(C)csc4c(=O)n3CC2)on1 | 20.2
49 | O=C(C1CCCC1)N1CCC(c2n[nH]c3nccnc23)CC1 | -1.92
50 | COc1ccc(OC)c(CN2CCC(c3cc(O)nc(C)n3)C2)c1 (stereo not given) | 22.5
51 | COCc1cc(O)nc(C2CCCN(Cc3ccc(OC)cc3)C2)n1 (stereo not given) | -2.96
52 | COc1ncc(C2(O)CCN(Cc3cc(F)cc(F)c3)CC2)c(OC)n1 | -2.18
53 | CC(=O)NC[C@]1(O)CCN(C(=O)c2ccc(C)c(F)c2)C[C@H]1O | -2.74
54 | O=C(N[C@@H]1CN(Cc2ccc3cc[nH]c3c2)C[C@H]1O)c1cnccn1 | -5.2
55 | O=C(N[C@@H]1CN(Cc2cccc(F)c2)C[C@H]1O)c1cscn1 | -4.57
56 | CN(c1ccncn1)C1CC2(CCN(C(=O)c3cncs3)C2)C1 (stereo not given) | -2.06
57 | CN(C(=O)C1CCOCC1)[C@@H]1CCC[C@@H](N2CCCC2)[C@@H]1O | -3.82
58 | Cc1cnc(C2CCCN(C(=O)c3c[nH]c(=O)[nH]c3=O)C2)s1 (stereo not given) | -8.7
59 | Cc1cccc(CN2CCC(c3nnc(-c4scnc4C)o3)CC2)c1 | 0.33
60 | Cc1ncsc1-c1nnc(C2CCN(Cc3ccc(Cl)cc3)CC2)o1 | 32.1
61 | CC(=O)N1CCCC1c1cc(N2CCN(CC(C)(C)C)CC2)cc(C)n1 (stereo not given) | -7.87
62 | CNc1cncc(C2CCCN2C(=O)c2ccc3c(c2)CCC3)n1 (stereo not given) | 9.47
63 | CCC(=O)N1CCCC1c1csc(Nc2cnccn2)n1 (stereo not given) | -9.64
64 | CC(=O)N1CCCC(c2cccc(-n3ccnc3)n2)C1 (stereo not given) | -7.9
65 | c1cnc(N2CCC(c3n[nH]c4ncccc34)C2)nc1 (stereo not given) | -7.93
66 | Cc1ncccc1Oc1nccnc1C1CCCN(C(C)C)C1 (stereo not given) | -6.39
67 | Cc1ccc(Oc2nccnc2C2CCN(C(=O)C(C)(C)N)CC2)cc1 | -6.45
68 | CCc1cc(=O)[nH]c(-c2ccc(NC(CO)CC(C)C)nc2)n1 (stereo not given) | -2.63
69 | CC(CNC(=O)CCCn1cncn1)N1CCc2ccccc2C1 (stereo not given) | 11.6

Row | SMILES | cytotoxicity at 70.5 h [%]
70 | CC(C)C(CNC(=O)CCn1cncn1)N1CCc2ccccc2C1 (stereo not given) | -6.95
71 | Cc1cccc(N2CCN(C(=O)CNCCn3cccn3)CC2)c1 | 9.75
72 | Cc1ccc(S(C)(=O)=O)cc1NCC(=O)NCCC1=CCCCC1 | -9.03
73 | COC(=O)c1cccc(S(=O)(=O)NCC(c2ccco2)N2CCCC2)c1 (stereo not given) | -14.2
74 | COCCNC(=O)NCc1ccc(-n2ccc(C(F)(F)F)n2)cc1 | -7.44
75 | COC(=O)c1ccc2c(c1)CCCN2S(=O)(=O)c1cn(C)c(C)n1 | 1.33
76 | COC(=O)C1CCN(C(=O)Cn2ccc(-c3ccccc3)n2)CC1 | -10.6
77 | Cc1cccc(N2CCN(C(=O)CNCCn3cc(C)cn3)CC2)c1 | 45
78 | CC(C)c1noc(OCC(=O)N2CCCCC2C)n1 (stereo not given) | -2.39
79 | CC1CCCCN1C(=O)COc1nc(C(C)(C)C)no1 (stereo not given) | -2.52
80 | CCOC(=O)C1(NC(=O)CCNc2cc(C)ccc2OC)CCCCC1 | -4.71
81 | O=C(c1ccc2[nH]cnc2c1)N1CCC(COc2ccccn2)CC1 | -5.85
82 | c1cc(N2CCC(CN3CCOCC3)CC2)c2sccc2n1 | 0.228
83 | CNS(=O)(=O)c1c(C)sc2ccccc12 | -0.847
84 | NC(=O)C1CCN(C(=O)NC(Cc2ccccc2)C(F)(F)F)CC1 (stereo not given) | 3.75
85 | CC(C)(C)CC(NC(=O)N1CCS(=O)(=O)CC1)C(F)(F)F (stereo not given) | -4.28
86 | CC(C)(C)CC(NC(=O)N1CCC(C(N)=O)CC1)C(F)(F)F (stereo not given) | 5.66
87 | CC(C)(NCCOc1ccc(CC#N)cc1)c1nccs1 | -2.87
88 | CCC(CNC(=O)c1cccc(S(=O)(=O)NC)c1)N1CCCC1 (stereo not given) | -2.78
89 | CC1CCCCN1C(=O)COc1nc(Cc2ccc(F)cc2)no1 (stereo not given) | -6.78
90 | Cc1cc(C)cc(NCCC(=O)NCc2cccnc2N(C)C)c1 | -5.81
91 | CN(CCc1ccncc1)CCc1nccs1 | -12.8
92 | COCC1CCN(c2ccnc3ccsc23)C1 (stereo not given) | -5.48

Row | SMILES | cytotoxicity at 70.5 h [%]
93 | CN(CCc1cccs1)CCc1nccs1 | 0.685
94 | CC(CNC(=O)N(C)Cc1ccco1)N1CCc2sccc2C1 (stereo not given) | 4.72
95 | CC(CNC(=O)NCc1ccco1)N1CCc2sccc2C1 (stereo not given) | 36.1
96 | CCn1c(=O)n(CCC(=O)N(C)Cc2ccc(C)o2)c2ccccc21 | -4.18
97 | Cn1c(CN2CCC(N3CCNC3=O)CC2)cc(=O)n(C)c1=O | -7.49
98 | CC(=O)N1CCC(NC(=O)Cc2nc3nc(C)cc(C)n3n2)CC1 | -3.83
99 | CC(Cn1cccn1)Nc1cnc2ccccc2n1 (stereo not given) | -0.212
100 | Cc1cnn(CC(C)Nc2nc3ccccc3o2)c1 (stereo not given) | 24.3
101 | Cc1cnn(CCNc2cnc3ccccc3n2)c1 | -1.2
102 | Cc1ccc(C(C)NC(=O)CSCC(N)=O)cc1 (stereo not given) | -0.981
103 | O=C(CCc1ccccc1)NCC(O)c1c(F)cccc1F (stereo not given) | -3.12
104 | CS(=O)(=O)CCNC(=O)Nc1ccc(Cl)cc1-n1cccc1 | 23.7
105 | O=C(Nc1cnn(-c2ccccc2Cl)c1)NC1CCC(O)CC1 (stereo not given) | 23.9
106 | COCCC(=O)NCC(O)c1c(F)cccc1F (stereo not given) | -7.9
107 | CCOCCS(=O)(=O)c1nnc(NCCOC)s1 | 23.1
108 | Cn1ccnc1CNC(=O)c1cncc(C2CCNCC2)n1 | -5.18
109 | COc1ccccc1C(=O)N1CCCC1c1ncc2c(n1)CCNC2 (stereo not given) | -2.07
110 | O=C(c1cccc(F)c1)N1CCCC1c1ncc2c(n1)CCNC2 (stereo not given) | -4.38
111 | COc1ncc(C2(O)CCN(Cc3cc(F)ccc3F)CC2)c(OC)n1 | -5.13
112 | Cc1cc(C[C@@H]2CCC[C@H]2NCc2c[nH]nc2-c2ccccc2)on1 | 20.7
113 | CC1(C)CC(N(Cc2ccncc2)Cc2cccnc2)CC(C)(C)N1 | 27.1
114 | Cc1ccsc1CN(Cc1cccnc1)C1CC(C)(C)NC(C)(C)C1 | 5.95
115 | Cc1cc(C[C@@H]2CCC[C@H]2NCc2cccc(F)c2F)on1 | -2.88
